The record followed here is patent US20240383886A1, “Protein Tyrosine Phosphatase Degraders and Methods of Use Thereof” (CALICO LIFE SCIENCES LLC, priority 2019, published 2024).

Usually DC50 stands for the concentration at which degradation of the target reaches its halfway point.

Experiment [1] addresses T1, PTPN2 (Homo sapiens, UniProt P17706).
T1 construct: expressed in transfected cells; host or cells: 293T (293T.109 HiBiT-PTPN2 line; parental 293T WT from ATCC)
T1 sequence (P17706 1-415): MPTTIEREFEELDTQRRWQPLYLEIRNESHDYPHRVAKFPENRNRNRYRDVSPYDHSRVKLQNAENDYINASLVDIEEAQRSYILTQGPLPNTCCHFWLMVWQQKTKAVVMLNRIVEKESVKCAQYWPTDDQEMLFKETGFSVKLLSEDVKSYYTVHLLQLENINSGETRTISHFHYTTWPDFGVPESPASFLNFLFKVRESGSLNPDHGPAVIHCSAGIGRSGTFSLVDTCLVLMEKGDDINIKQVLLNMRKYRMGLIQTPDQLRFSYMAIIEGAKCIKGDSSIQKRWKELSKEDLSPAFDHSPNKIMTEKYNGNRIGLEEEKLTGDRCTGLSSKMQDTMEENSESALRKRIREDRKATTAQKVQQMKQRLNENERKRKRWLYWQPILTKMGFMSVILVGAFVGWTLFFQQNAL
Nature of the experiment: HiBiT-Degradation 293T.109 PTPN2 (Nano-Glo HiBiT Lytic Assay). Format: cell-based. As to conditions: 293T.109 (HiBiT-PTPN2) cells, 24.0 hours. In a few lines:
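Luminescence from a lytic HiBiT read gave PTPN2 levels after 24 h compound exposure at 37° C. Compounds were tested at 11 half-log points from a 10 μM top concentration, in duplicate. The cells were 293T engineered with an N-terminal HiBiT–PTPN2 fusion, plated at 5000 per well, with untreated wells as negative control and no-reagent wells as positive control.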
(In general: The HiBiT peptide binds its large partner to form an active luciferase.)

The subject of experiment [2] is PTPN2. Nature of the experiment: HiBiT-Degradation B16F10.4 PTPN2. Type of experiment: cell-based. Conditions: B16F10.4 cells, 24.0 hours.

For `Cn1c(=O)n(C2CCC(=O)NC2=O)c2ccc(-c3ccc(CCC(=O)Nc4ccc5c(F)c(N6CC(=O)NS6(=O)=O)c(O)cc5c4)cc3)cc21` (stereo not shown) [Example 116, N-(6-(1,1-dioxido-4-oxo-1,2,5-thiadiazolidin-2-yl)-5-fluoro-7-hydroxynaphthalen-2-yl)-3-(4-(1-(2,6-dioxopiperidin-3-yl)-3-methyl-2-oxo-2,3-dihydro-1H-benzo[d]imidazol-5-yl)phenyl)propanamide], the DC50 on PTPN2 [1] and with PTPN2 [2] was 0.05 to 0.2 µM in each case.

`Cn1nc(C2CCC(=O)NC2=O)c2ccc(C3CCN(C4CC(C(=O)Nc5ccc6c(F)c(N7CC(=O)NS7(=O)=O)c(O)cc6c5)C4)CC3(F)F)cc21` (stereo not shown) [Example 117, N-(6-(1,1-dioxido-4-oxo-1,2,5-thiadiazolidin-2-yl)-5-fluoro-7-hydroxynaphthalen-2-yl)-3-(4-(3-(2,6-dioxopiperidin-3-yl)-1-methyl-1H-indazol-6-yl)-3,3-difluoropiperidin-1-yl)cyclobutanecarboxamide]: the DC50 fell in the range of 0.01 to 0.05 µM on PTPN2 [1] and 0.05 to 0.2 µM in the experiment with PTPN2 [2].

Take `Cn1c(=O)n(C2CCC(=O)NC2=O)c2ccc(-c3ccc(CC(=O)Nc4ccc5c(F)c(N6CC(=O)NS6(=O)=O)c(O)cc5c4)cc3F)cc21` (stereo not shown) [Example 118, N-(6-(1,1-dioxido-4-oxo-1,2,5-thiadiazolidin-2-yl)-5-fluoro-7-hydroxynaphthalen-2-yl)-2-(4-(1-(2,6-dioxopiperidin-3-yl)-3-methyl-2-oxo-2,3-dihydro-1H-benzo[d]imidazol-5-yl)-3-fluorophenyl)acetamide]: the DC50 lay in the range of 0.05 to 0.2 µM at PTPN2 [1] and 0.01 to 0.05 µM in the experiment with PTPN2 [2].

Consider `Cn1c(=O)n(C2CCC(=O)NC2=O)c2ccc(C3CCN(CC(=O)N4CC=C(c5ccc6cc(O)c(N7CC(=O)NS7(=O)=O)c(F)c6c5)CC4)CC3)cc21` (stereo not shown) [Example 119, 3-[5-[1-[2-[4-[8-fluoro-6-hydroxy-7-(1,1,4-trioxo-1,2,5-thiadiazolidin-2-yl)-2-naphthyl]-3,6-dihydro-2H-pyridin-1-yl]-2-oxo-ethyl]-4-piperidyl]-3-methyl-2-oxo-benzimidazol-1-yl]piperidine-2,6-dione], for which the 50% degradation concentration (DC50) lay in the range of 0.01 to 0.05 µM on PTPN2 [1] and 0.05 to 0.2 µM in the experiment with PTPN2 [2].

Turning to `Cn1c(=O)n(C2CCC(=O)NC2=O)c2ccc(C3CCN(CC(=O)N4CCC(c5ccc6cc(O)c(N7CC(=O)NS7(=O)=O)c(F)c6c5)CC4)CC3)cc21` (stereo not shown) [Example 120, 3-[5-[1-[2-[4-[8-fluoro-6-hydroxy-7-(1,1,4-trioxo-1,2,5-thiadiazolidin-2-yl)-2-naphthyl]-1-piperidyl]-2-oxo-ethyl]-4-piperidyl]-3-methyl-2-oxo-benzimidazol-1-yl]piperidine-2,6-dione], the DC50 on PTPN2 [1] lay in the range of 0.01 to 0.05 µM; in the experiment with PTPN2 [2] it was 0.05 to 0.2 µM.

Regarding `Cn1c(=O)n(C2CCC(=O)NC2=O)c2ccc(C3CCN(CCN4CC=C(c5ccc6cc(O)c(N7CC(=O)NS7(=O)=O)c(F)c6c5)CC4)CC3)cc21` (stereo not shown) [Example 121, 3-[5-[1-[2-[4-[8-fluoro-6-hydroxy-7-(1,1,4-trioxo-1,2,5-thiadiazolidin-2-yl)-2-naphthyl]-3,6-dihydro-2H-pyridin-1-yl]ethyl]-4-piperidyl]-3-methyl-2-oxo-benzimidazol-1-yl]piperidine-2,6-dione], the DC50 at PTPN2 [1] lay within 0.01 to 0.05 µM; in the experiment on PTPN2 [2], 0.05 to 0.2 µM.

Regarding `Cn1c(=O)n(C2CCC(=O)NC2=O)c2ccc(C3CCN(CCn4cc(-c5ccc6c(F)c(N7CC(=O)NS7(=O)=O)c(O)cc6c5)cn4)CC3)cc21` (stereo not shown) [Example 122, 3-[5-[1-[2-[4-[5-fluoro-7-hydroxy-6-(1,1,4-trioxo-1,2,5-thiadiazolidin-2-yl)-2-naphthyl]pyrazol-1-yl]ethyl]-4-piperidyl]-3-methyl-2-oxo-benzimidazol-1-yl]piperidine-2,6-dione], the results for the DC50 at PTPN2 [1] and in the experiment on PTPN2 [2] were 0.01 to 0.05 µM and 0.2 to 1 µM, respectively.

Regarding `Cn1c(=O)n(C2CCC(=O)NC2=O)c2ccc(C3CCN(CCN4CCC(c5ccc6cc(O)c(N7CC(=O)NS7(=O)=O)c(F)c6c5)CC4)CC3)cc21` (stereo not shown) [Example 123, 3-[5-[1-[2-[4-[8-fluoro-6-hydroxy-7-(1,1,4-trioxo-1,2,5-thiadiazolidin-2-yl)-2-naphthyl]-1-piperidyl]ethyl]-4-piperidyl]-3-methyl-2-oxo-benzimidazol-1-yl]piperidine-2,6-dione], the figures for the DC50 on PTPN2 [1] and in the experiment on PTPN2 [2] were 0.01 to 0.05 µM and 0.05 to 0.2 µM, respectively.

For `Cn1c(=O)n(C2CCC(=O)NC2=O)c2ccc(N3CCC(CC(=O)N4CCC(c5ccc6cc(O)c(N7CC(=O)NS7(=O)=O)c(F)c6c5)CC4)CC3)cc21` (stereo not shown) [Example 124, 3-[5-[4-[2-[4-[8-fluoro-6-hydroxy-7-(1,1,4-trioxo-1,2,5-thiadiazolidin-2-yl)-2-naphthyl]-1-piperidyl]-2-oxo-ethyl]-1-piperidyl]-3-methyl-2-oxo-benzimidazol-1-yl]piperidine-2,6-dione], the DC50 on PTPN2 [1] and in the experiment on PTPN2 [2] was 0.2 to 1 µM each time.

Turning to `Cn1c(=O)n(C2CCC(=O)NC2=O)c2ccc(C3CCN(Cc4cnn(-c5ccc6cc(O)c(N7CC(=O)NS7(=O)=O)c(F)c6c5)c4)CC3)cc21` (stereo not shown) [Example 125, 3-[5-[1-[[1-[8-fluoro-6-hydroxy-7-(1,1,4-trioxo-1,2,5-thiadiazolidin-2-yl)-2-naphthyl]pyrazol-4-yl]methyl]-4-piperidyl]-3-methyl-2-oxo-benzimidazol-1-yl]piperidine-2,6-dione], the DC50 at PTPN2 [1] was 0.05 to 0.2 µM; in the experiment with PTPN2 [2], 0.2 to 1 µM.

With `Cn1c(=O)n(C2CCC(=O)NC2=O)c2ccc(Nc3ccc(C(=O)NCCOc4ccc5cc(O)c(N6CC(=O)NS6(=O)=O)c(F)c5c4)cc3)cc21` (stereo not shown) [Example 126, 4-[[1-(2,6-dioxo-3-piperidyl)-3-methyl-2-oxo-benzimidazol-5-yl]amino]-N-[2-[[8-fluoro-6-hydroxy-7-(1,1,4-trioxo-1,2,5-thiadiazolidin-2-yl)-2-naphthyl]oxy]ethyl]benzamide], the DC50 at PTPN2 [1] and in the experiment on PTPN2 [2] was 0.2 to 1 µM each time.

For `Cn1c(=O)n(C2CCC(=O)NC2=O)c2ccc(N3CCC(CC(=O)N4CC=C(c5ccc6cc(O)c(N7CC(=O)NS7(=O)=O)c(F)c6c5)CC4)CC3)cc21` (stereo not shown) [Example 127, 3-[5-[4-[2-[4-[8-fluoro-6-hydroxy-7-(1,1,4-trioxo-1,2,5-thiadiazolidin-2-yl)-2-naphthyl]-3,6-dihydro-2H-pyridin-1-yl]-2-oxo-ethyl]-1-piperidyl]-3-methyl-2-oxo-benzimidazol-1-yl]piperidine-2,6-dione], the figures for the DC50 on PTPN2 [1] and in the experiment on PTPN2 [2] were 0.05 to 0.2 µM and 0.2 to 1 µM, respectively.

`Cn1c(=O)n(C2CCC(=O)NC2=O)c2ccc(C3CCN(CCCCOc4ccc5cc(O)c(N6CC(=O)NS6(=O)=O)c(F)c5c4)CC3)cc21` (stereo not shown) [Example 128, 3-[5-[1-[4-[[8-fluoro-6-hydroxy-7-(1,1,4-trioxo-1,2,5-thiadiazolidin-2-yl)-2-naphthyl]oxy]butyl]-4-piperidyl]-3-methyl-2-oxo-benzimidazol-1-yl]piperidine-2,6-dione]: the DC50 at PTPN2 [1] is 0.05 to 0.2 µM; in the experiment with PTPN2 [2], 0.2 to 1 µM.

Turning to `Cn1c(=O)n(C2CCC(=O)NC2=O)c2ccc(C3CCN(CC(=O)Nc4ccc5c(F)c(N6CC(=O)NS6(=O)=O)c(O)cc5c4)CC3(F)F)cc21` (stereo not shown) [Example 129, 2-[4-[1-(2,6-dioxo-3-piperidyl)-3-methyl-2-oxo-benzimidazol-5-yl]-3,3-difluoro-1-piperidyl]-N-[5-fluoro-7-hydroxy-6-(1,1,4-trioxo-1,2,5-thiadiazolidin-2-yl)-2-naphthyl]acetamide], the half-maximal degradation concentration (DC50) at PTPN2 [1] and in the experiment on PTPN2 [2] was 0.05 to 0.2 µM throughout.
